Experimental data as given in EPA's ToxRefDB 2.

Key:
[1] = system: rat; conditions: Subchronic oral toxicity in rodents, sprague dawley, Gavage/Intubation, dose end: 90 day, group: systemic
[2] = system: rabbit; conditions: Sub-acute dermal toxicity, new zealand white, Topical, dose end: 3 week, group: systemic, systemic / pathology gross / lymph node / enlarged + systemic / pathology gross / skin / lesion(s) (nos) + systemic / pathology microscopic…
[3] = system: rat; conditions: Subchronic oral toxicity in rodents, fischer, Gavage/Intubation, dose end: 13 week, group: systemic
[4] = system: mouse; conditions: Subchronic oral toxicity in rodents, b6c3f1, Gavage/Intubation, dose end: 13 week, group: systemic
[5] = system: rat; conditions: Combined chronic toxicity/carcinogenicity; sprague dawley; Oral; Feed; dose end: 2 year; group: systemic; systemic / in life observation / body weight / body weight + systemic / in life observation / body weight / body weight gain + systemic / …
[6] = system: rabbit; conditions: Prenatal developmental toxicity study, new zealand white, Oral, Gavage/Intubation, dose end: 19 GD
[7] = system: rat; conditions: Prenatal developmental toxicity study, other, Oral, Feed, dose end: 15 GD
[8] = system: dog; conditions: Chronic toxicity, beagle, Oral, Feed, dose end: 12 month, group: systemic
[9] = system: mouse; conditions: Carcinogenicity; cd1; Oral; Feed; dose end: 24 month; group: systemic; systemic / hematology / methemoglobin / methemoglobin + systemic / in life observation / body weight / body weight + systemic / in life …
[10] = system: rat; conditions: Multigenerational reproductive toxicity study, other, Oral, Feed, dose end: 2 generation
[11] = system: rat; conditions: Multigenerational reproductive toxicity study, sprague dawley, Oral, Feed, dose end: 3 generation
[12] = system: rat; conditions: Combined chronic toxicity/carcinogenicity, fischer, Oral, Gavage/Intubation, dose end: 2 year, group: systemic
[13] = system: rat; conditions: Subchronic oral toxicity in rodents, fischer, Gavage/Intubation, dose end: 13 week, group: systemic; remark: listed apart in the source
[14] = system: mouse; conditions: Combined chronic toxicity/carcinogenicity; b6c3f1; Oral; Gavage/Intubation; dose end: 2 year; group: systemic; systemic / pathology microscopic / liver / cytomegaly + systemic / pathology microscopic / liver / hyperplasia + systemic / pathology …
[15] = system: mouse; conditions: Subchronic oral toxicity in rodents, b6c3f1, Gavage/Intubation, dose end: 13 week, group: systemic; remark: listed apart in the source
[16] = system: rat; conditions: Carcinogenicity; fischer; Oral; Water; dose end: 104 week; group: systemic; systemic / in life observation / body weight / body weight
[17] = system: rat; conditions: Chronic toxicity; fischer; Oral; Feed; dose end: 115 week; group: systemic; systemic / hematology / erythrocyte (rbc) count differential / erythrocyte (rbc) + systemic / hematology / hematocrit (hct) / hematocrit (…
[18] = system: rat; conditions: Subchronic oral toxicity in rodents, fischer, Water, dose end: 14 week, group: systemic
[19] = system: rat; conditions: Carcinogenicity, fischer, Oral, Water, dose end: 105 week, group: systemic
[20] = system: rat; conditions: Developmental neurotoxicity study; sprague dawley; Oral; Feed; dose end: 90 PND; group: cannot be grouped; reproductive / offspring survival early / dead fetuses / dead fetuses + systemic / in life observation / body weight / offspring (pup) …
[21] = system: mouse; conditions: Carcinogenicity, b6c3f1, Oral, Water, dose end: 105 week, group: systemic
[22] = system: mouse; conditions: Subchronic oral toxicity in rodents, b6c3f1, Water, dose end: 14 week
[23] = system: rat; conditions: Subchronic oral toxicity in rodents, fischer, Water, dose end: 6 week, group: systemic
[24] = systemic / clinical chemistry / [other] / [other] + systemic / clinical chemistry / chloride / chloride + systemic / clinical chemistry / …
[25] = systemic / pathology gross / thymus / discolored
[26] = systemic / hematology / anemia / anemia - macrocytic + systemic / hematology / erythrocyte (rbc) count differential / erythrocyte (rbc) + …
[27] = systemic / hematology / methemoglobin / methemoglobin
[28] = systemic / hematology / anemia / anemia - normocytic + systemic / hematology / erythrocyte (rbc) count differential / erythrocyte (rbc) + …
[29] = group: developmental, developmental / developmental malformation / bone / [other] + developmental / developmental malformation / bone / hole(s) + developmental / …
[30] = group: maternal, systemic / in life observation / body weight / body weight gain
[31] = group: maternal, systemic / in life observation / body weight / body weight gain + reproductive / reproductive performance / aborted / aborted + systemic / …
[32] = group: developmental, developmental / developmental malformation / bone / bipartite ossification + developmental / developmental malformation / bone / delayed …
[33] = group: maternal, systemic / in life observation / body weight / body weight + systemic / in life observation / food consumption / food consumption + …
[34] = systemic / hematology / methemoglobin / methemoglobin + systemic / hematology / sulphemoglobin / sulphemoglobin
[35] = systemic / hematology / methemoglobin / methemoglobin + systemic / hematology / sulphemoglobin / sulphemoglobin + systemic / clinical …
[36] = group: offspring, systemic / in life observation / body weight / offspring (pup) weight + developmental / developmental malformation / diaphragm / hernia + …
[37] = group: parental, systemic / in life observation / body weight / body weight gain + systemic / in life observation / body weight / body weight + systemic / in…
[38] = group: reproductive, reproductive / offspring survival early / birth index / live birth index
[39] = group: offspring, developmental / offspring survival late / viability index / viability index + systemic / in life observation / body weight / offspring (pup…
[40] = group: parental, systemic / in life observation / body weight / body weight + systemic / in life observation / body weight / body weight gain
[41] = group: reproductive, reproductive / reproductive performance / fertility / fertility
[42] = systemic / pathology microscopic / kidney / pigmentation + systemic / pathology microscopic / nose / pigmentation
[43] = systemic / in life observation / body weight / body weight + systemic / in life observation / clinical signs / labored respiration + …
[44] = systemic / in life observation / body weight / body weight + systemic / organ weight / kidney / absolute + systemic / organ weight / kidney…
[45] = systemic / in life observation / body weight / body weight gain + systemic / in life observation / clinical signs / prostration + systemic…
[46] = systemic / in life observation / body weight / body weight gain + systemic / organ weight / liver / absolute + systemic / organ weight / …
[47] = systemic / hematology / methemoglobin / methemoglobin + systemic / clinical chemistry / urea nitrogen / urea nitrogen
[48] = systemic / in life observation / body weight / body weight + systemic / pathology microscopic / stomach / hyperplasia
[49] = systemic / in life observation / water consumption / water consumption
[50] = group: maternal, reproductive / reproductive performance / estrous cycle / length
[51] = group: systemic, systemic / in life observation / body weight / body weight + systemic / in life observation / body weight / body weight gain + systemic / …
[52] = systemic / hematology / methemoglobin / methemoglobin + systemic / in life observation / body weight / body weight gain + systemic / in life…

Cc1ccc(O)c(C)c1 [2,4-Dimethylphenol]
LOAEL [1, 24]: > 540 mg/kg/day
NOAEL [1, 24]: ≥ 540 mg/kg/day
LEL [1, 25]: 60 mg/kg/day
NEL [1, 25]: < 60 mg/kg/day
LEL [2]: 1200 mg/kg/day
LOAEL [2]: > 2400 mg/kg/day
NEL [2]: < 1200 mg/kg/day
NOAEL [2]: ≥ 2400 mg/kg/day

Nc1ccccc1Cl [2-Chloroaniline]
LOAEL [3, 26]: 80 mg/kg/day
NOAEL [3, 26]: 40 mg/kg/day
LEL [3, 27]: 10 mg/kg/day
NEL [3, 27]: < 10 mg/kg/day
LOAEL [4, 28]: 80 mg/kg/day
NOAEL [4, 28]: 40 mg/kg/day
LEL [4, 27]: 10 mg/kg/day
NEL [4, 27]: < 10 mg/kg/day

CON(C)C(=O)Nc1ccc(Cl)c(Cl)c1 [Linuron]
LEL [5]: 5.11 mg/kg/day
LOAEL [5]: 5.11 mg/kg/day
NEL [5]: 2.09 mg/kg/day
NOAEL [5]: 2.09 mg/kg/day
LEL [6, 29]: 100 mg/kg/day
LOAEL [6, 29]: 100 mg/kg/day
NEL [6, 29]: 25 mg/kg/day
NOAEL [6, 29]: 25 mg/kg/day
LEL [6, 30]: 25 mg/kg/day
LOAEL [6, 30]: 25 mg/kg/day
NEL [6, 31]: 5 mg/kg/day
NOAEL [6, 31]: 5 mg/kg/day
LEL [7, 32]: 50 mg/kg/day
LOAEL [7, 32]: 50 mg/kg/day
NEL [7, 32]: 12 mg/kg/day
NOAEL [7, 32]: 12 mg/kg/day
LOAEL ([7]; group: maternal, systemic / in life observation / body weight / body weight + systemic / in life observation / food consumption / food consumption): 50 mg/kg/day
LEL [7, 33]: 50 mg/kg/day
NEL [7, 33]: 12 mg/kg/day
NOAEL [7, 33]: 12 mg/kg/day
LEL [8, 34]: 3.49 mg/kg/day
LOAEL [8, 34]: 3.49 mg/kg/day
NEL [8, 35]: 0.77 mg/kg/day
NOAEL [8, 35]: 0.77 mg/kg/day
LEL [9]: 261 mg/kg/day
LOAEL [9]: 261 mg/kg/day
NEL [9]: 23 mg/kg/day
NOAEL [9]: 23 mg/kg/day
LEL ([10]; group: offspring, systemic / in life observation / body weight / offspring (pup) weight): 7.77 mg/kg/day
LOAEL [10, 36]: > 54 mg/kg/day
NEL [10, 36]: 0.948 mg/kg/day
NOAEL [10, 36]: ≥ 54 mg/kg/day
LOAEL ([10]; group: parental, systemic / in life observation / body weight / body weight gain): 5.83 mg/kg/day
NEL [10, 37]: 0.736 mg/kg/day
NOAEL [10, 37]: 0.736 mg/kg/day
LEL ([10]; group: parental, systemic / in life observation / body weight / body weight gain + systemic / in life observation / food consumption / food consumption): 5.83 mg/kg/day
LEL [10, 38]: 54 mg/kg/day
LOAEL [10, 38]: > 54 mg/kg/day
NEL [10, 38]: 7.77 mg/kg/day
NOAEL [10, 38]: ≥ 54 mg/kg/day
LEL [11, 39]: 44 mg/kg/day
LOAEL [11, 39]: 44 mg/kg/day
NEL [11, 39]: 9 mg/kg/day
NOAEL [11, 39]: 9 mg/kg/day
LEL ([11]; group: parental, systemic / in life observation / body weight / body weight): 9 mg/kg/day
LOAEL ([11]; group: parental, systemic / in life observation / body weight / body weight + systemic / hematology / erythrocyte (rbc) count differential / erythrocyte (rbc…): 10 mg/kg/day
NEL [11, 40]: 2 mg/kg/day
NOAEL [11, 40]: 2 mg/kg/day
LEL [11, 41]: 44 mg/kg/day
LOAEL [11, 41]: 44 mg/kg/day
NEL [11, 41]: 9 mg/kg/day
NOAEL [11, 41]: 9 mg/kg/day

COc1c(Cl)c(Cl)c(Cl)c(Cl)c1Cl [Pentachloroanisole]
LOAEL ([12]; systemic / in life observation / body weight / body weight + systemic / pathology microscopic / adrenal gland / hyperplasia): 40 mg/kg/day
NOAEL ([12]; systemic / in life observation / body weight / body weight + systemic / pathology microscopic / adrenal gland / hyperplasia + systemic / …): 20 mg/kg/day
LEL [12, 42]: 10 mg/kg/day
NEL [12, 42]: < 10 mg/kg/day
LOAEL [13, 43]: > 180 mg/kg/day
NOAEL [13, 43]: ≥ 180 mg/kg/day
LEL [13, 44]: 40 mg/kg/day
NEL [13, 44]: < 40 mg/kg/day
LEL [14]: 20 mg/kg/day
LOAEL [14]: 20 mg/kg/day
NEL [14]: < 20 mg/kg/day
NOAEL [14]: < 20 mg/kg/day
LOAEL [15, 45]: > 180 mg/kg/day
NOAEL [15, 45]: ≥ 180 mg/kg/day
LEL [15, 46]: 40 mg/kg/day
NEL [15, 46]: < 40 mg/kg/day

O=N[O-].[Na+] [Sodium nitrite]
LEL [16]: 125 mg/kg/day
LOAEL [16]: > 125 mg/kg/day
NEL [16]: 62.5 mg/kg/day
NOAEL [16]: ≥ 125 mg/kg/day
LEL [17]: 100 mg/kg/day
LOAEL [17]: > 250 mg/kg/day
NEL [17]: < 100 mg/kg/day
NOAEL [17]: ≥ 250 mg/kg/day
LOAEL [18, 27]: 30 mg/kg/day
NOAEL [18, 27]: < 30 mg/kg/day
LEL [18, 47]: 30 mg/kg/day
NEL [18, 47]: < 30 mg/kg/day
LOAEL [19, 48]: 130 mg/kg/day
NOAEL ([19]; systemic / in life observation / body weight / body weight + systemic / pathology microscopic / stomach / hyperplasia + systemic / in life …): 70 mg/kg/day
LEL [19, 49]: 35 mg/kg/day
NEL [19, 49]: < 35 mg/kg/day
LEL [20]: 12.5 mg/kg/day
LOAEL [20]: > 25 mg/kg/day
NEL [20]: 6.25 mg/kg/day
NOAEL [20]: ≥ 25 mg/kg/day
LOAEL [21, 48]: 165 mg/kg/day
NOAEL ([21]; systemic / in life observation / body weight / body weight + systemic / pathology microscopic / stomach / hyperplasia + systemic / pathology…): 90 mg/kg/day
LEL [21, 49]: 45 mg/kg/day
NEL [21, 49]: < 45 mg/kg/day
LEL [22, 50]: 445 mg/kg/day
LOAEL [22, 50]: > 1230 mg/kg/day
NEL [22, 50]: 240 mg/kg/day
NOAEL [22, 50]: ≥ 1230 mg/kg/day
LOAEL [22, 51]: 990 mg/kg/day
NEL [22, 51]: 190 mg/kg/day
NOAEL [22, 51]: 750 mg/kg/day
LEL ([22]; group: systemic, systemic / in life observation / water consumption / water consumption): 345 mg/kg/day
LOAEL [23, 52]: > 500 mg/kg/day
NEL [23, 52]: 125 mg/kg/day
NOAEL [23, 52]: ≥ 500 mg/kg/day
LEL ([23]; systemic / hematology / methemoglobin / methemoglobin + systemic / in life observation / mortality / mortality + systemic / pathology gross…): 250 mg/kg/day
